What was measured:
leukaemia P388 = experiment: Antitumour activity against leukaemia P388 in rats CD2 F1, i.p. (Table I); assay type: in vivo; settings: for MST / T/C % / TOX: day 1; for LTS (60 days): day 1, 60 days
Protocol: 10^5 leukaemic cells were injected at day 0 and the compounds were administered intraperitoneally the day after, defined as day 1 of the experiment.

leukaemia L1210/CDDP = experiment: Effect on leukaemia L1210/CDDP (cis-platinum resistant) in rats CD2 F1, i.p. (Table II); assay type: in vivo, rats CD2 Fl; settings: for MST / T/C %: day 1; for LTS (60 days): day 1, 60 days
Protocol: ^a) 10^5 cell/rat injected i.p. at day
Compounds were administered at day "1

L1210/CDDP cells = experiment: In vitro growth inhibition of murine leukaemia L1210/CDDP (Table III); assay type: cell-based
Protocol: (§1) Effect of BBR 1939 on in vitro growth^b) of murine leukaemia^a)
(§2) ^a) 10^5 cells were plated in triplicate at time
(§3) ^b) means used: RPMI 1640 + 10 Y FCS (inactivated in warm) +
(§4) 2mercaptoethanol 10^-3 M
(§5) ^c) IC %: inhibition percentage of cellular growth (treated animals

K562 cells = experiment: In vitro growth inhibition of human erythroleukosis K562 (Table III); assay type: cell-based
Protocol: as §1
L1210/CDDP and human erythroleukosis
K562 b - Comparison with CDDP:
as §2, §3, §4, §5

human tumors = settings: cited from earlier work

Which results are given for `O=C1c2c(O)ccc(O)c2C(=O)c2c(NCCNCCO)ccc(NCCNCCO)c21` [Mitoxanthrone]?
MST (leukaemia P388; 3.75 mg/Kg): 32.5 days; T/C % (leukaemia P388; 3.75 mg/Kg): 295%; TOX (leukaemia P388; 3.75 mg/Kg): 0/7; LTS (60 days) (leukaemia P388; 3.75 mg/Kg): 2/7; MST (leukaemia P388; 11.1 mg/Kg): 36.5 days; T/C % (leukaemia P388; 11.1 mg/Kg): 331%; TOX (leukaemia P388; 11.1 mg/Kg): 0/7; LTS (60 days) (leukaemia P388; 11.1 mg/Kg): 1/7; MST (leukaemia P388; 18.4 mg/Kg): 42.5 days; T/C % (leukaemia P388; 18.4 mg/Kg): 386%; TOX (leukaemia P388; 18.4 mg/Kg): 0/7; LTS (60 days) (leukaemia P388; 18.4 mg/Kg): 1/7; MST (leukaemia P388; 25.8 mg/Kg): 40.5 days; T/C % (leukaemia P388; 25.8 mg/Kg): 368%; TOX (leukaemia P388; 25.8 mg/Kg): 1/7; LTS (60 days) (leukaemia P388; 25.8 mg/Kg): 0/7

What does the source list for `N.N.[Cl][Pt][Cl]` [cis-platinum, cis-diaminodichloroplatinum II]?
MST (leukaemia P388; 6 mg/Kg): 22.5 days; T/C % (leukaemia P388; 6 mg/Kg): 198%; LTS (60 days) (leukaemia P388; 6 mg/Kg): 0/7; MST (leukaemia P388; 10 mg/Kg): 18.8 days; T/C % (leukaemia P388; 10 mg/Kg): 162%; LTS (60 days) (leukaemia P388; 10 mg/Kg): 0/7; MST (leukaemia P388; 14 mg/Kg): 11.5 days; T/C % (leukaemia P388; 14 mg/Kg): 99%; LTS (60 days) (leukaemia P388; 14 mg/Kg): 0/7; MST (leukaemia L1210/CDDP; 5 mg/Kg): 11.1 days; T/C % (leukaemia L1210/CDDP; 5 mg/Kg): 97%; LTS (60 days) (leukaemia L1210/CDDP; 5 mg/Kg): 0/10; MST (leukaemia L1210/CDDP; 7.5 mg/Kg): 11.6 days; T/C % (leukaemia L1210/CDDP; 7.5 mg/Kg): 101%; LTS (60 days) (leukaemia L1210/CDDP; 7.5 mg/Kg): 0/10; MST (leukaemia L1210/CDDP; 12.5 mg/Kg): 9.3 days; T/C % (leukaemia L1210/CDDP; 12.5 mg/Kg): 103%; LTS (60 days) (leukaemia L1210/CDDP; 12.5 mg/Kg): 0/10; IC % (inhibition percentage of cellular growth) (L1210/CDDP cells; 0.5 ug/ml, after 24 hours): 20%; IC % (inhibition percentage of cellular growth) (L1210/CDDP cells; 0.5 ug/ml, after 48 hours): 8%; IC % (inhibition percentage of cellular growth) (L1210/CDDP cells; 0.5 ug/ml, after 72 hours): 37%; IC % (inhibition percentage of cellular growth) (L1210/CDDP cells; 1 ug/ml, after 24 hours): 30%; IC % (inhibition percentage of cellular growth) (L1210/CDDP cells; 1 ug/ml, after 48 hours): 18%; IC % (inhibition percentage of cellular growth) (L1210/CDDP cells; 1 ug/ml, after 72 hours): 44%; IC % (inhibition percentage of cellular growth) (L1210/CDDP cells; 5 ug/ml, after 24 hours): 54%; IC % (inhibition percentage of cellular growth) (L1210/CDDP cells; 5 ug/ml, after 48 hours): 87%; IC % (inhibition percentage of cellular growth) (L1210/CDDP cells; 5 ug/ml, after 72 hours): 84%; IC % (inhibition percentage of cellular growth) (L1210/CDDP cells; 10 ug/ml, after 24 hours): 78%; IC % (inhibition percentage of cellular growth) (L1210/CDDP cells; 10 ug/ml, after 48 hours): 92%; IC % (inhibition percentage of cellular growth) (L1210/CDDP cells; 10 ug/ml, after 72 hours): 86%; IC % (inhibition percentage of cellular growth) (L1210/CDDP cells; 50 ug/ml, after 24 hours): 80%; IC % (inhibition percentage of cellular growth) (L1210/CDDP cells; 50 ug/ml, after 48 hours): 99%; IC % (inhibition percentage of cellular growth) (L1210/CDDP cells; 50 ug/ml, after 72 hours): 100%; IC % (inhibition percentage of cellular growth) (K562 cells; 1 ug/ml, after 24 hours): 22%; IC % (inhibition percentage of cellular growth) (K562 cells; 1 ug/ml, after 48 hours): 52%; IC % (inhibition percentage of cellular growth) (K562 cells; 1 ug/ml, after 72 hours): 54%; IC % (inhibition percentage of cellular growth) (K562 cells; 5 ug/ml, after 24 hours): 28%; IC % (inhibition percentage of cellular growth) (K562 cells; 5 ug/ml, after 48 hours): 71%; IC % (inhibition percentage of cellular growth) (K562 cells; 5 ug/ml, after 72 hours): 82%; IC % (inhibition percentage of cellular growth) (K562 cells; 10 ug/ml, after 24 hours): 35%; IC % (inhibition percentage of cellular growth) (K562 cells; 10 ug/ml, after 48 hours): 76%; IC % (inhibition percentage of cellular growth) (K562 cells; 10 ug/ml, after 72 hours): 87%; IC % (inhibition percentage of cellular growth) (K562 cells; 50 ug/ml, after 24 hours): 52%; IC % (inhibition percentage of cellular growth) (K562 cells; 50 ug/ml, after 48 hours): 85%; IC % (inhibition percentage of cellular growth) (K562 cells; 50 ug/ml, after 72 hours): 91%; IC % (inhibition percentage of cellular growth) (K562 cells; 100 ug/ml, after 24 hours): 56%; IC % (inhibition percentage of cellular growth) (K562 cells; 100 ug/ml, after 48 hours): 85%; IC % (inhibition percentage of cellular growth) (K562 cells; 100 ug/ml, after 72 hours): 91%; clinical efficacy (human tumors; clinical observation): Clinical observation confirms the efficacy of the compound in a number of human tumors; side effects (human tumors; clinical): serious gastro-intestinal, renal side effects, hematologic and neurologic complications (ototoxicity)

— US5145848A, “Amino anthracenediones-bis platinum complexes, useful as antitumoral agents” (priority 1987, dated 1992)
